Measured values: patent US6913878B2, “Method of detecting DNA single strand breaks” (The University of North Carolina at Chapel Hill, priority 2003, dated 2005)

Experiments:
[1] = system: PARP-1+/+ immortalized embryonic fibroblasts; assay: Intracellular NAD(P)H assay (WST-8) in PARP-1+/+ fibroblasts; assay type: cell-based, mouse; details: PARP-1+/+ cells, MMS 4 hours (FIG. 4A)
Procedure: (§1) XRCC1-proficient and -deficient CHO cells (Taylor, et al. (2002) Mol. Cell. Biol. 22:2556-2563) were cultured as monolayers in alpha-minimal essential medium (INVITROGEN™, Carlsbad, Calif.) supplemented with 10% fetal bovine serum (Sigma-Aldrich, St. Louis, Mo.), 100 μg/mL penicillin, and 100 μg/mL streptomycin. Immortalized mouse embryonic fibroblasts derived from PART-1^+/+ and PARP-1^−/− were maintained in Dulbecco's modified Eagle's medium, 4.5 g/Liter glucose medium (INVITROGEN™, Carlsbad, Calif.) supplemented with 10% fetal bovine serum and 0.5% gentamicin (Schreiber, et al. (2002) J. Biol. Chem. 277:23028-23036). […]
(§2) A water-soluble tetrazolium salt was used to measure the amount of intracellular NAD(P)H through the reduction to a formazan dye. The total amount of NAD(P)H within viable cells in the medium was determined periodically by a spectrophotometer. […] WST-8 produced a water-soluble yellow-colored formazan dye through its bioreduction either in the presence of an electron carrier, such as 1-Methoxy PMS, Diaphorase, a flavoenzyme, or directly by NAD(P)H. Therefore, the reduction of tetrazolium salts predominantly depends on the amount of intracellular NAD(P)H. The amount of formazan dye produced by the living cells in the medium was determined approximately every 30 minutes by a spectrophotometer and compared to the values of the control. […]

EM9-V cells [2] = assay: Intracellular NAD(P)H assay using XTT or MTS; assay type: cell-based, Chinese hamster
Procedure: (§3) XTT^1) (2,3-bis[2-Methoxy-4-nitro-5-sulfophenyl]-2H-tetrazolium-5-carboxy-anilide inner salt) and MTS^2) (3-(4,5-dimethylthiazol-2-yl)-5-(3-carboxynethoxyphenyl)-2-(4-sulfophenyl)-2H-tetrazolium, inner salt), water-soluble tetrazolium salts, were used to measure the amount of intracellular NAD(P)H through the reduction to a water-soluble formazan dye. EM9-V and XH5 cells were seeded into 96-well plates and were cultured in 100 μL of medium with fetal bovine serum and antibiotics as described (10,000 cells per well). After a 30-minute incubation, cells were treated with DMS (dimethylsulfate) at indicated concentrations and 1/10 volume of either XTT with an electron coupling agents such as phenazine methosulfate (Sigma) or MTS with phenazine methosulfate (Promega). Cells in each well were further cultured for up to 4 hours. Either XTT or MTS produced a water-soluble yellow-colored formazan dye and the absorbance was recorded in a 96-well plate reader at 450 nm with a 650 nm reference filter.
(§4) These cells were exposed to DMS at different concentrations for 2.5 or 4 hours. […] In addition, CHO cells were co-exposed to DMS and PARP inhibitor, 3-aminobenzamide (10 mM) and were applied 1 to 2 hours prior to the DMS treatment and kept in the medium during DMS exposure until the cells were analyzed.

[3] = system: EM9-XH5 cells (CHO EM9 cells expressing wild-type human XRCC1); assay: Intracellular NAD(P)H assay with water-soluble tetrazolium salt WST-8 (CCK-8); assay type: cell-based, Chinese hamster
Procedure: (§5) XRCC1-proficient and -deficient CHO cells (Taylor, et al. (2002) Mol. Cell. Biol. 22:2556-2563) were cultured as monolayers in alpha-minimal essential medium (INVITROGEN™, Carlsbad, Calif.) supplemented with 10% fetal bovine serum (Sigma-Aldrich, St. Louis, Mo.), 100 μg/mL penicillin, and 100 μg/mL streptomycin. Immortalized mouse embryonic fibroblasts derived from PART-1^+/+ and PARP-1^−/− were maintained in Dulbecco's modified Eagle's medium, 4.5 g/Liter glucose medium (INVITROGEN™, Carlsbad, Calif.) supplemented with 10% fetal bovine serum and 0.5% gentamicin (Schreiber, et al. (2002) J. Biol. Chem. 277:23028-23036). Human lymphoblastoid cells (GM15030, GM15061, GM15237, GM15268, GM15339, GM15349, GM15365, and GM15380; Coriell Cell Repositories, Camden, N.J.) were grown in RPMI 1640 medium (INVITROGEN™, Carlsbad, Calif.) supplemented with 15% fetal bovine serum (Sigma-Aldrich, St. Louis, Mo.), 100 μg/mL penicillin, and 100 μg/mL streptomycin. The cells were maintained in a humidified atmosphere of 5% CO2 and 95% air at 37° C.
(§6) A water-soluble tetrazolium salt was used to measure the amount of intracellular NAD(P)H through the reduction to a formazan dye. The total amount of NAD(P)H within viable cells in the medium was determined periodically by a spectrophotometer. Cells were seeded into 96-well plates (CHO cells and mouse fibroblasts: 5×10^3 cells/well; lymphoblastoid cells: 15×10^3 cells/well) and were cultured in 100 μL of medium with fetal bovine serum and antibiotics as described. After a 30-minute incubation, cells were treated with MMS at indicated concentrations and 1/10 volume of CCK-8 solution (Dojindo Molecular Technology, Gaithersburg, Md.) which consisted of a water-soluble 2-(2-methoxy-4-nitrophenyl)-3-(4-nitrophenyl)-5-(2,4-disulfophenyl)-2H-tetrazolium monosodium salt (WST-8; 5 mM) and 1-Methoxy-5-methylphenazinium methylsulfate (1-Methoyx PMS; 0.2 mM) as an electron mediator. Cells in each well were further cultured for up to 4 hours. WST-8 produced a water-soluble yellow-colored formazan dye through its bioreduction either in the presence of an electron carrier, such as 1-Methoxy PMS, Diaphorase, a flavoenzyme, or directly by NAD(P)H. Therefore, the reduction of tetrazolium salts predominantly depends on the amount of intracellular NAD(P)H. The amount of formazan dye produced by the living cells in the medium was determined approximately every 30 minutes by a spectrophotometer and compared to the values of the control. Absorbance was recorded in a 96-well plate reader at 450 nm with a 650 nm reference filter. A medium blank was prepared with only medium and CCK-8 reaction solution. Decreases in the intracellular NAD(P)H were assessed by comparing the absorbance of a well containing cells treated with MMS against that of a well with cells treated with phosphate-buffered saline (PBS) only.
(§7) XRCC1 functions as a scaffold for interaction with other base excision repair-associated proteins including human AP endonuclease (APE1), DNA Pol-β, DNA Ligase III, Polynucleotide Kinase (PNK), and PARP-1 (Caldecott, et al. (1996) Nucl. Acids Res. 24:4387-4394; Whitehouse, et al. (2001) Cell 104:1-11; Kubota, et al. (1996) EMBO J. 15:6662-6670; Caldecott, et al. (1994) Mol. Cell. Biol. 14:68-76; Caldecott, et al. (1995) Nucl. Acids Res. 23:4836-4843) and is required for efficient single strand break repair and genetic stability in mammalian cells. Rodent cells lacking XRCC1 are hypersensitive to DNA damaging agents (Whitehouse, et al. (2001) Cell 104:1-11; Kubota, et al. (1996) EMBO J. 15:6662-6670; Caldecott, et al. (1994) Mol. Cell. Biol. 14:68-76). […]

[4] = system: EM9-V cells (XRCC1-deficient CHO EM9 cells expressing empty vector); assay: as above; assay type: cell-based, Chinese hamster
Procedure: as §5, §6, §7

EM9-XH5 cells = assay: Intracellular NAD(P)H assay using XTT or MTS; assay type: cell-based, Chinese hamster; details: DMS 4 hours (XTT) or 2.5 hours (MTS) (FIG. 7A, B)
Procedure: as §3, §4

[5] = system: EM9-V and EM9-XH5 CHO cells; assay: Trypan blue dye-exclusion assay (cell death); assay type: cell-based, Chinese hamster; details: MMS 0, 0.75, 1.5 mM for 1 and 4 hours; any concentration
Procedure: Cell death was determined with trypan blue staining. Cells were treated with MMS at 0, 0.75, and 1.5 mM for 1 and 4 hours. After trypsinization, cells were stained using a standard trypan blue dye-exclusion assay.

EM9-V cells [6] = assay type: cell-based, Chinese hamster; details: immediately after 1 hour MMS treatment (FIG. 5D)
Procedure: A direct comparison was conducted between the method of the invention measuring NAD(P)H and the Comet assay for the detection of single strand breaks. Slides for the Comet assay were prepared using well-known methods (Tennant, et al. (2001) Mutat. Res. 493:1-10). Briefly, slides were dipped into agarose and dried at 60° C. Low melting point agarose (0.5%) was prepared and held at 42° C. Cell suspensions (1×10^4 cells/10 μL) were mixed with 190 μL low melting point agarose. Ninety μL of this suspension was pipetted onto each of two slides and covered with a coverglass. Each slides was placed on ice for 5 minutes, the coverglass was removed, 90 μL of low melting point agarose was pipetted onto each slide, a coverglass was reapplied, and slides were returned to the ice. After 5 minutes, the coverglass was removed and the slides were placed in lysis buffer (pH 11) containing 2.5 M NaCl, 100 mM EDTA-2Na, 10 mM Tris, 1% Na Sarcosinate, 1% TRITON® X-100 and 10% dimethylsulfoxide for 20 minutes. Following lysis, the slides were placed in denaturation buffer (i.e., electrophoresis buffer; 300 mM NaOH, 1 mM EDTA, pH 13). […]
Slides were stained using 35 μL of SYBR GREEN-1™ (MOLECULAR PROBES™, Eugene, Oreg.)(10× in Tris-EDTA buffer pH 8.0) and a coverglass was applied. […] Fifty cells from each of two slides were analyzed by a independent scorer who had no knowledge of the treatment. […]

[7] = system: PARP-1-/- immortalized embryonic fibroblasts; assay: Intracellular NAD(P)H assay (WST-8) in PARP-1-/- fibroblasts; assay type: cell-based, mouse; details: PARP-1-/- cells, MMS 4 hours, compared with PARP-1+/+ cells (FIG. 4B)
Procedure: as §1, §2

[8] = system: Human lymphoblastoid cells (GM15030, GM15061, GM15237, GM15268, GM15339, GM15349, GM15365, GM15380); assay: Intracellular NAD(P)H assay (WST-8) in lymphoblastoid cells; assay type: cell-based; details: eight healthy individuals, MMS 4 hours (FIG. 6A)
Procedure: as §1, §2

NC(=O)c1cccc(N)c1 [3-AB, 3-aminobenzamide]
protection from reduction in NAD(P)H upon exposure to MMS ([1]; 3-AB 10 mM): protected | block of DMS-induced decrease in intracellular NAD(P)H (EM9-V cells [2]; 3-AB 10 mM applied 1 to 2 hours before and during DMS, XTT 4 hours or MTS 2.5 hours (FIG. 7A, B)): completely blocked | block of MMS-induced decrease in intracellular NAD(P)H ([3]; 3-AB 10 mM applied 1 to 2 hours before and during MMS, 4 hours (FIG. 3A)): almost completely blocked | block of MMS-induced decrease in intracellular NAD(P)H ([4]; EM9-V cells, 3-AB 10 mM applied 1 to 2 hours before and during MMS, 4 hours (FIG. 3A)): almost completely blocked

COS(=O)(=O)OC [DMS, dimethylsulfate]
intracellular NAD(P)H significantly reduced by treatment with DMS (EM9-XH5 cells): not | intracellular NAD(P)H significantly reduced by treatment with DMS (EM9-V cells [2]; DMS 4 hours (XTT) or 2.5 hours (MTS), dose-dependent (FIG. 7A, B)): significantly reduced

O=C1NCCc2c(OCCCCN3CCCCC3)cccc21 [DPQ, 3,4-dihydro-5-[4-(1-piperidinyl)butoxy]-1(2H)-isoquinolinone]
block of MMS-induced decrease in intracellular NAD(P)H ([3]; DPQ 90 μM applied 1 to 2 hours before and during MMS, 4 hours (FIG. 3B)): almost completely blocked | block of MMS-induced decrease in intracellular NAD(P)H ([4]; EM9-V cells, DPQ 90 μM applied 1 to 2 hours before and during MMS, 4 hours (FIG. 3B)): almost completely blocked

COS(C)(=O)=O [MMS, methyl methanesulfonate]
cell death (trypan blue exclusion) during MMS treatment [5]: no major cell death | NAD(P)H on exposure to MMS [1]: reduced NAD(P)H | MMS concentration at which increase in tail moment was detected (Comet assay) (EM9-V cells [6]): ~50 µM | NAD(P)H on exposure to MMS [7]: more resistant to the decrease in NAD(P)H | sensitivity to MMS (NAD(P)H depletion) among lymphoblastoid cell lines [8]: wide variation in the sensitivity | intracellular NAD(P)H on treatment with MMS ([3]; MMS at different concentrations for 4 hours, dose-dependent (FIG. 2A)): significantly reduced | intracellular NAD(P)H on treatment with MMS ([4]; EM9-V cells, MMS at different concentrations for 4 hours, dose-dependent (FIG. 2A)): significantly reduced | lowest MMS concentration at which decrease in intracellular NAD(P)H was detected ([4]; EM9-V cells, at 1, 2 and 4 hours (FIG. 5A-C)): ~10 µM | earliest time at which reduction of NAD(P)H was detected during MMS exposure ([4]; EM9-V cells, real-time assay, read about every 30 minutes (FIG. 2B)): 30 min | time for ratio of NAD(P)H in EM9-V versus EM9-XH5 cells to reach a plateau ([4]; as a function of exposure time with MMS (FIG. 2C)): ≤ 1 h
